# Assay results reported in patent publication US20240018132A1, “5-HYDROXY-1,4-NAPHTHALENEDIONE FOR USE IN THE TREATMENT OF CANCER” (GODAVARI BIOREFINERIES LIMITED, priority 2020, published 2024).
# pIC50: −log10 of the molar value. Read-outs that look alike come from different tables or passages of the source.
# Experiments:
# Human lymphocytes = experiment: Lymphocyte assay (MTT on normal cells); type: cell-based; settings: Lymphocyte; human peripheral blood lymphocytes, MTT procedure
# Description: Human lymphocytes were isolated from the peripheral blood. A pure population of lymphocytes was obtained based on differential centrifugation, in which diluted defibrinated blood was layered on a solution of sodium diatrizoate and polysucrose (HiSep LSM 1077) and centrifuged at low speeds for 30 mins.
# Procedure: The separation of lymphocytes from fresh defibrinated blood was performed by the procedure described below: • 1. Diluted defibrinated fresh blood was overlaid gradually on (HiSeP LSM1077) and centrifuged at low speed for 30 mins. • 2. The lymphocyte layer (the buffy coat) was carefully removed in a new collection tube. • 3. The buffy coat was given another wash, by the diluent buffer Dulbecco's phosphate buffered saline (D.P.B.S) • 4. The supernatant was discarded and the pellet was resuspended in D.P.B.S. • 5. The viability of cells was checked by Haemocytometer. • 6. Cells with purity and viability of more than 95% were taken for the experiment. • 7. Purified lymphocytes were diluted at a concentration of 0.7 million/ml with sterile D.P.B.S and MTT procedure was performed exactly as described earlier.
# PC3 [1] = experiment: In vitro sphere-forming assay (cancer stem cells), Prostosphere media; settings: for 3D sphere count of PC3: Prostosphere media, 2000 cells/well, n = 6 ± S.D
# PC3 [2] = experiment: In vitro antiproliferative assay (MTT assay), prostate cancer cell line; type: cell-based; settings: MTT assay, prostate cancer PC3, 48 hrs drug incubation
# Procedure, shortened: (§1)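 Compound exposure lasted 48 h at 37 °C in 5% CO2, following a 24 h attachment period; DMSO stocks were 0.1 M. Metabolic reduction of MTT (0.5 mg/ml, 4 h), solubilized in DMSO, gave viability, plotted as log % viability versus log drug concentration.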
# PC3 [3] = experiment: Wound Healing Assay (WHA), prostate cancer cell line; type: cell-based; settings: IC10 conc. of compound
# Description: (§2) Wound Healing Assay (WHA) determines the ability of cancer stem cells to heal the wound formed in a confluent monolayer.
# (§3) Procedure: 0.35×10^6 cells were plated in each well of 6 Tissue Culture well plates. The plate was incubated for 48 hrs at 37° C., 5% CO2. […] IC10 conc. of the respective compound was added into each well. The plates were incubated at 37° C., 5% CO2 and the width of scratch was measured at various time intervals such as 6, 24 and 48 hours. Average of 3 distances were taken for each time point using IS camera Measure. A plot of average width of scratch in micrometer was plotted against the time interval after treatment.
# MDAMB231 [4] = experiment: In vitro sphere-forming assay (cancer stem cells), Mammosphere media; settings: for 3D sphere count of MDAMB231: Mammosphere media, 2000 cells/well, n = 6 ± S.D
# Procedure: (§7) In Vitro Sphere-forming Assay: Sphere assay measures the ability of cancer stem cells (CSCs) to form spheres in specially designed serum-free medium.
# (§8) Mammosphere Media Preparation (For 100 mL): 1 g methyl cellulose autoclaved with magnetic stirrer, 100 ml plain media (MEBM) was added and dissolved under magnetic stirring. After complete dissolution FGF-80 μL, EGF-40 μL, Penstrep-1 mL, Heparin-400 μL was added.
# (§9) Procedure—The cells were trypsinised and made into single-cell suspension by passing through cell strainers (100 μl and 40 μl, respectively), The cells were diluted at a concentration of 2000 cells/100 μL and suspended in either Mammosphere (for breast cell lines) or Prostosphere (for prostate cell lines). 100 μL of this suspension was added into each well of 96-well suspension plates and incubated at 37° C., 5% CO2 for 24 hrs. Appropriate concentrations of the drugs (2 μL) were added into respective wells with 100 μL of stem cell culture medium. Plates were incubated at 37° C., 50 CO2 for 72 hrs. After incubation, 2.5 μL of the respective drug concentration and 50 μL of stem cell culture medium were added into each well and the plates were further incubated at 37° C., 50% CO2 for 72 hrs. 3 μL of the respective drug concentration was added with 50 μL of stem cell culture medium again after incubation and plates were reincubated for 72 hrs at 37° C., 50 CO2. Number of primary spheres formed for each concentration were counted. The spheres were converted to 0 viability of spheres compared to untreated (Growth Control with DMSO, GCD).
# MDAMB231 [5] = experiment: In vitro antiproliferative assay (MTT assay), breast cancer cell line; type: cell-based; settings: MTT assay, breast cancer MDAMB231, 48 hrs drug incubation
# Procedure, shortened: as §1
# MDAMB231 [6] = experiment: Soft agar colony-formation assay, breast cancer; type: cell-based
# Description: (§4) The Soft Agar Colony-formation Assay is an anchorage-independent growth assay in soft agar, which is one of the most stringent assays for detecting malignant transformation of cells. For this assay, malignant cells are cultured with appropriate controls in soft agar medium for 1-2 weeks. Following this incubation period, formed colonies can either be analyzed morphologically using cell stain and quantifying the number of colonies formed.
# (§5) Briefly, for Soft Agar Assay a mixture of 50 ul of 2× medium (taken appropriately as per cell line) and 50 ul of 1.2% Bacto Agar were plated on to each well of 96 well micro titer assay plate. 10 ul of cells (of specific plating efficiency pre standardized for respective cell line) were mixed with 20 ul of 2× medium and 30 ul of 0.8% of Bacto Agar and 1.6 ul of drug (of appropriate concentration) in a vial and transferred to the solidified pre layers of the assay plates. The cells were then allowed to grow and form colonies at 37° C. and 5% CO2 for 1 week. An intermittent feeding with 50 ul of appropriate 2× medium was performed after 3 days of experimental set up. 16 ul of Alamar Blue (1.5 mg/ml) was then added to all the wells to quantify the developed colonies. The plates were incubated for 24 hrs at 37° C. Absorbance was then measured at 630 nm. XY graph of log Percent viability was then plotted against log drug concentration.
# (§6) Following plating efficiencies were standardized for Soft Agar Assay: […]
# MDAMB231 [7] = experiment: Wound Healing Assay (WHA), breast cancer cell line; type: cell-based; settings: IC10 conc. of compound
# Description: as §2, §3
# PC3 [8] = experiment: Soft agar colony-formation assay, prostate cancer; type: cell-based
# Description: as §4, §5, §6
# MDAMB231 [9] = settings: human, 216 h
# Procedure: as §7, §8, §9
# PC3 [10] = settings: human, 216 h
# [11] = Homo sapiens, PC-3, read-out: % Viability of spheres (PC3)
# [12] = Homo sapiens, MDA-MB-231, read-out: % Viability of spheres (MDAMB231)
smiles,measurement,setting,value
"COc1ccc(OC2=CC(=O)c3c(OCCN4CCOCC4)cccc3C2=O)cc1 [Formula 43, 5-(2-morpholinoethoxy)-2-(4-methoxyphenoxy) naphthalene-1,4-dione]",pIC50,Human lymphocytes,4.97
same,viability at 0.0025 µM,PC3 [1]; [11],75%
same,viability at 0.025 µM,PC3 [1]; [11],57%
same,viability at 0.25 µM,PC3 [1]; [11],46%
same,viability at 2.5 µM,PC3 [1]; [11],30%
same,viability at 25 µM,PC3 [1]; [11],21%
same,3D sphere count of PC3,PC3 [1]; drug 0.0025 uM,75(±4)
same,3D sphere count of PC3,PC3 [1]; drug 0.025 uM,57(±5)
same,3D sphere count of PC3,PC3 [1]; drug 0.25 uM,46(±4)
same,3D sphere count of PC3,PC3 [1]; drug 2.5 uM,30(±4)
same,3D sphere count of PC3,PC3 [1]; drug 25 uM,21(±3)
same,pIC50,PC3 [2],6.30
same,% inhibition of Wound Healing for Prostate Cancer Cell line (PC3) after 48 hrs,PC3 [3],50.47%
same,viability at 0.0025 µM,MDAMB231 [4]; [12],82%
same,viability at 0.025 µM,MDAMB231 [4]; [12],61%
same,viability at 0.25 µM,MDAMB231 [4]; [12],46%
same,viability at 2.5 µM,MDAMB231 [4]; [12],33%
same,viability at 25 µM,MDAMB231 [4]; [12],21%
same,3D sphere count of MDAMB231,MDAMB231 [4]; drug 0.0025 uM,82(±4)
same,3D sphere count of MDAMB231,MDAMB231 [4]; drug 0.025 uM,61(±3)
same,3D sphere count of MDAMB231,MDAMB231 [4]; drug 0.25 uM,46(±3)
same,3D sphere count of MDAMB231,MDAMB231 [4]; drug 2.5 uM,33(±4)
same,3D sphere count of MDAMB231,MDAMB231 [4]; drug 25 uM,21(±3)
same,pIC50,"MDAMB231 [5]; Homo sapiens, MDA-MB-231, 48 h",6.00
same,"anticancer activity in comparison with cisplatin, soft agar, breast cancer cell line","MDAMB231 [6]; FIG. 51, MDAMB231",higher anticancer activity in comparison with cisplatin
same,pIC50,"MDAMB231 [6]; Homo sapiens, MDA-MB-231, 168 h, Soft Agar Assay, 1 week, Alamar Blue",6.18
same,% inhibition of Wound Healing for Breast Cancer Cell line (MDAMB231) after 48 hrs,MDAMB231 [7],53.3%
same,"anticancer activity in comparison with cisplatin, soft agar, prostate cancer cell line","PC3 [8]; FIG. 52, PC3",higher anticancer activity in comparison with cisplatin
same,pIC50,"PC3 [8]; Homo sapiens, PC-3, 168 h, Soft Agar Assay, 1 week, Alamar Blue",6.38
COc1ccc(OC2=CC(=O)c3c(OCCN4CCOCC4)cccc3C2=O)cc1 [Formula 81],% Viability of spheres (MDAMB231),MDAMB231 [9]; 0.0025 uM,82(±4) %
same,% Viability of spheres (MDAMB231),MDAMB231 [9]; 0.025 uM,61(±3) %
same,% Viability of spheres (MDAMB231),MDAMB231 [9]; 0.25 uM,46(±3) %
same,% Viability of spheres (MDAMB231),MDAMB231 [9]; 2.5 uM,33(±4) %
same,% Viability of spheres (MDAMB231),MDAMB231 [9]; 25 uM,21(±3) %
same,3D sphere count of PC3,PC3 [1]; drug 0.0025 uM,75(±4)
same,3D sphere count of PC3,PC3 [1]; drug 0.025 uM,57(±5)
same,3D sphere count of PC3,PC3 [1]; drug 0.25 uM,46(±4)
same,3D sphere count of PC3,PC3 [1]; drug 2.5 uM,30(±4)
same,3D sphere count of PC3,PC3 [1]; drug 25 uM,21(±3)
same,pIC50,PC3 [2],5.66
same,3D sphere count of MDAMB231,MDAMB231 [4]; drug 0.0025 uM,82(±4)
same,3D sphere count of MDAMB231,MDAMB231 [4]; drug 0.025 uM,61(±3)
same,3D sphere count of MDAMB231,MDAMB231 [4]; drug 0.25 uM,46(±3)
same,3D sphere count of MDAMB231,MDAMB231 [4]; drug 2.5 uM,33(±4)
same,3D sphere count of MDAMB231,MDAMB231 [4]; drug 25 uM,21(±3)
same,pIC50,MDAMB231 [5],6.20
same,% Viability of spheres (PC3),PC3 [10]; 0.0025 uM,75(±4) %
same,% Viability of spheres (PC3),PC3 [10]; 0.025 uM,57(±5) %
same,% Viability of spheres (PC3),PC3 [10]; 0.25 uM,46(±4) %
same,% Viability of spheres (PC3),PC3 [10]; 2.5 uM,30(±4) %
same,% Viability of spheres (PC3),PC3 [10]; 25 uM,21(±3) %
